This is an account of results in publication PMC6982966 (Molecules, 2019).

Read-outs that look alike come from different tables or passages of the source.

As a reminder, the melting point is the temperature, or range, at which the solid turns liquid.

Data set [1] concerns the target T1, human CK2 holoenzyme (Homo sapiens, UniProt P68400).
T1 construct: made in house; host or cells: Escherichia coli
As to conditions: recombinant human CK2, compounds published before, cited from earlier work; for Tested pIC50: pIC50 = -logIC50.

For data set [2], the target named is T1, human CK2 holoenzyme. The data set is described as follows: biochemical. As to conditions: newly synthesized indeno[1,2-b]indoles.
For another data set, the system named is MCF-7 cells. The data set is described as follows: MTT cell viability assay. The class given is cell-based, human. The note with it: for reduction of cell viability: after 24 h and 48 h. The method, then:
The effect of the four naphtho[2,3-b]furan-4,9-dione derivatives on cell viability was evaluated using an MTT assay with MCF-7 cells (human breast adenocarcinoma cell line). […]. It is important to note that some compounds with a naphtho[2,3-b]furan-4,9-dione backbone are known to have anticancer effects and are highly cytotoxic, and other natural naphtho[2,3-b]furan-4,9-dione derivatives, which are found in the lapacho (Tabebuia) tree, are known to have different biological activities, such as antibacterial, antifungal, anti-inflammatory, and antitumor activities.
Bars represent the mean values of three measurements (n = 3). Error bars illustrate the corresponding standard deviations (± SD).
The effect of CK2 inhibitors on the viability of MCF-7 cells was evaluated using an MTT assay. MCF-7 breast cancer cells (kindly provided by the Department of Clinical Radiology of the University Hospital Muenster, Germany) were cultured in RPMI 1640 medium containing GlutaMax (Life Technologies, Darmstadt, Germany) and 10% fetal calf serum. The MTT assay was performed in 96-well plates. Cells were seeded at a density of 1 × 10^5 cells per well, then incubated […] at 37 °C in a humidified atmosphere (5% CO2). After overnight incubation, the seeding medium was removed and replaced with fresh medium containing the inhibitor at 0.01, 0.1, 1, and 10 μM. DMSO at a final concentration of 1% served as a control. Afterward, the MTT reagent (Sigma Aldrich, Darmstadt, Germany) was added at a final concentration of 0.5 mg/mL. After incubation for 2 h at 37 °C, the medium was discarded and 200 µL DMSO was added for the solubilization of the formazan. After mixing, the absorption was determined at 570 nm with a reference wavelength of 630 nm using a microplate reader. CK2 inhibitors were tested in triplicate, and the experiments were repeated three times.

Setting [3] is: Tested pIC50, recombinant human CK2, pIC50 = -logIC50.
Setting [4] is: Tested IC50, recombinant human CK2.
Where [5] appears, read: recombinant human CK2, read-out: Tested IC50.
Setting [6] is: recombinant human CK2, pIC50 = -logIC50, read-out: Tested pIC50 (converted).

T1 sequence (P68400 whole entry): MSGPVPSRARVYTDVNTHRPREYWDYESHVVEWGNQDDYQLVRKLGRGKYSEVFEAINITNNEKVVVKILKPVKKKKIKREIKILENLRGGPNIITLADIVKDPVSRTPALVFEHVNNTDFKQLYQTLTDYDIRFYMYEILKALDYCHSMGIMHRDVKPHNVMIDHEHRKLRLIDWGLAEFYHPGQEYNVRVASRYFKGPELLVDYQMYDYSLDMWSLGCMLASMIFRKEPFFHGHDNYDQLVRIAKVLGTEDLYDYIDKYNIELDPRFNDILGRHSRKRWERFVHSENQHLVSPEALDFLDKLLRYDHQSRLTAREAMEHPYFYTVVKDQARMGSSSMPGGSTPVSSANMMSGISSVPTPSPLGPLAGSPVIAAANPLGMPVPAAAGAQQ
T1 sequence (P67870 whole entry partner): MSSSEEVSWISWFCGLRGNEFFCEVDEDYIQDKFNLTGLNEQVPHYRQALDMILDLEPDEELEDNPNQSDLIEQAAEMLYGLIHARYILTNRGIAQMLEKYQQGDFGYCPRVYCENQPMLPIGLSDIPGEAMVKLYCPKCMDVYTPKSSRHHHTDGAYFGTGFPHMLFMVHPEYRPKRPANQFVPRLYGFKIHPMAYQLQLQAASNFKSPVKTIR

For the compound `COc1ccccc1CCn1c2c(c3c1-c1ccccc1C3=O)C(=O)CCC2` [4e], on human CK2 holoenzyme [1] (read-out: Tested IC50), the IC50 was 1400 nM. Also, the “Tested pIC50” value at human CK2 holoenzyme [1] is listed as 5.8540. The compound `Cc1cccc2c1C(=O)c1c3c(n(C(C)C)c1-2)CCCC3=O` [4h, 5-isopropyl-1-methyl-5,6,7,8-tetrahydroindeno[1,2-b]indole-9,10-dione] had a melting point of 235 °C. For the same compound, the IC50 on human CK2 holoenzyme [2] (setting [3]) amounted to 110 nM. `CC(C)n1c2c(c3c1-c1cccc(C(F)(F)F)c1C3=O)C(=O)CCC2` [4i]: the IC50 at human CK2 holoenzyme [2] (setting [3]) was 210 nM. Still for that read-out and setting: the result for `CC(C)n1c2c(c3c1-c1cccc(Br)c1C3=O)C(=O)CCC2` [4j] reads 140 nM. Take `COC(=O)COc1ccc2c(c1)-c1c(c3c(n1C(C)C)CCCC3=O)C2=O` [4p]: the IC50 at human CK2 holoenzyme [2] (setting [4]) and on human CK2 holoenzyme [2] (setting [3]) was 1520 nM in each case.

With `CC(=O)Oc1ccc2c(c1)-c1c(c3c(n1C(C)C)CCCC3=O)C2=O` [4q], the IC50 at human CK2 holoenzyme [2] (setting [4]) and at human CK2 holoenzyme [2] (setting [3]) was 3210 nM in each case. In the case of `COC(=O)CCCOc1ccc2c(c1)-c1c(c3c(n1C(C)C)CCCC3=O)C2=O` [4r], the IC50 at human CK2 holoenzyme [2] (setting [3]) stood at 520 nM. Regarding `CC(C)n1c2c(c3c1-c1cc(OCCCC(=O)O)ccc1C3=O)C(=O)CCC2` [4s], the IC50 on human CK2 holoenzyme [2] (setting [3]) is 1510 nM. In turn, `CC(C)n1c2c(c3c1-c1cc(Br)cc(Br)c1C3=O)C(=O)CCC2` [4w, 1,3-dibromo-5-isopropyl-5,6,7,8-tetrahydroindeno[1,2-b]indole-9,10-dione] had a melting point of 276 °C. The IC50 at human CK2 holoenzyme [2] (setting [3]) amounted to 110 nM. As for `CC(C)C1CC(=O)c2c3c(n(C(C)C)c2C1)-c1ccccc1C3=O` (centres unmarked) [4y], at human CK2 holoenzyme [1], the “Tested pIC50” value is recorded as 6.2150. For `O=C1c2ccccc2-c2[nH]c3cccc(O)c3c21` [5a], the IC50 at human CK2 holoenzyme [2] (setting [5]) and at human CK2 holoenzyme [2] (setting [6]) was 2220 nM throughout. As to `O=c1ccc(=O)c2c1[nH]c1c3ccccc3c(=O)c12` [6a], the IC50 on human CK2 holoenzyme [2] (setting [5]) and at human CK2 holoenzyme [2] (setting [6]) was 1780 nM throughout. `Cn1c2c(=O)ccc(=O)c2c2c(=O)c3ccccc3c21` [6b]: the IC50 at human CK2 holoenzyme [2] (setting [4]) and on human CK2 holoenzyme [2] (setting [3]) was 1120 nM throughout.

As to `CCn1c2c(=O)ccc(=O)c2c2c(=O)c3ccccc3c21` [6c], at human CK2 holoenzyme [2] (setting [5]), the IC50 was 1580 nM. In the case of `CC(C)n1c2c(=O)ccc(=O)c2c2c(=O)c3c(Br)cccc3c21` [6d], the IC50 at human CK2 holoenzyme [2] (setting [5]) and on human CK2 holoenzyme [2] (setting [6]) was 1350 nM throughout. For `COc1ccc2c(=O)c3c4c(=O)ccc(=O)c4n(C(C)C)c3c2c1` [6e], the IC50 at human CK2 holoenzyme [2] (setting [4]) and at human CK2 holoenzyme [2] (setting [3]) was 4160 nM each time.

As to `COc1cccc2c(=O)c3c4c(=O)ccc(=O)c4n(C(C)C)c3c12` [6f], the IC50 on human CK2 holoenzyme [2] (setting [5]) is 870 nM; at human CK2 holoenzyme [2] (setting [6]), 871 nM.

On to `Cc1cc(=O)c2c3c(=O)c4ccccc4c3n(C(C)C)c2c1=O` [6g], for which the “Tested pIC50” value on human CK2 holoenzyme [1] was 6.3660. As to `Cc1oc2c(c1C(=O)NCCC(C)C)C(=O)c1ccccc1C2=O` [compound 00082235, N-isopentyl-2-methyl-4,9-dioxo-4,9-dihydronaphtho[2,3-b]furan-3-carboxamide], the “reduction of cell viability” value in the data set with MCF-7 cells (MCF-7, 10 µM) is on record as “more than 90%”.

With `Cc1oc2c(c1C(=O)N1CCOCC1)C(=O)c1ccccc1C2=O` [compound 01236034, 2-methyl-3(morpholine-4-carbonyl)naphto[2,3-b] furan-4,9-dione], in the data set with MCF-7 cells (MCF-7, 10 µM, after 48 h), the “cell viability reduced to” value is on record as 60%. Take `Cc1oc2c(c1C(=O)NCCCn1ccnc1)C(=O)c1ccccc1C2=O` [compound 01893208, 1-(3-(2-methyl-4,9-dioxo-4,9-dihydronaphtho[2,3-b]furan-3-carboxamido)propyl)-1H-imidazol-3-ium]: the “reduction of cell viability” value with MCF-7 cells (MCF-7, 1 µM) was “around 90%”; in the data set with MCF-7 cells (MCF-7, 10 µM), “more than 90%”. For `Cc1oc2c(c1C(=O)NCc1cccnc1)C(=O)c1ccccc1C2=O` [compound 37867960, 2-methyl-4,9-dioxo-N-(pyridin-3-ylmethyl)-4,9-dihydronaphtho[2,3-b]furan-3-carboxamide], in that order: “around 90%” and “more than 90%”.
